Experimental findings from US20080241084A1, “Compositions and methods for inhibiting melanogenesis” (Shaklee Corporation, priority 2007, published 2008) are described below.

The subject of data set [1] is MelanoDerm tissue (MEL-300-B). Kind of data set: Melanin assay on MelanoDerm tissue (MEL-300-B). The note with it: for Melanin content of the two tested samples for each test article: 25 μL applied Days 0, 1, 3, 6, 8. The format is cell-based, human. On the set-up: % melanin content relative to the Negative Control / % melanin content relative to the Positive Control: concentration or dose not given beside the values. As to the method: (§1) The effects of the test articles on skin color, melanin production, melanocyte morphology and dendricity and tissue morphology were assessed using MelanoDerm tissue (MEL-300-B). MelanoDerm tissue is another epidermal equivalent system from the MatTek Corporation of Ashland, Mass. This system consists of normal, human-derived epidermal keratinocytes (NHEK) and melanocytes (NHM) which have been cultured to form a multilayered, highly differentiated model of the human epidermis. The NHM within co-cultures undergo spontaneous melanogenesis leading to tissue pigmentation. The MEL-300-B system contains melanocytes derived from a donor.
On Day zero of the study, prior to exposure to any test articles, MelanoDerm tissue samples were placed into wells on plates containing maintenance medium that had been pre-warmed to about 37° C. (Long life maintenance medium, EPI-100-LLMM). The Melanoderm tissue samples were then incubated for about an hour in a humidified incubator maintained at a temperature of about 37° C. in an atmosphere of about 5% CO2. Following incubation, the maintenance medium was removed by aspiration. A cell culture stand was then placed in each well on the plate containing a MelanoDerm tissue sample. About 5 mL of fresh maintenance medium pre-warmed to about 37° C. was then added to each well having a MelanoDerm tissue sample. Then a cell culture insert was placed on top of each cell culture stand. 25 μL portions of each of GS, SB, A, FS, DG, Mix, negative control, and positive control were applied by pipette to six separate MelanoDerm tissue samples for each test article being tested (e.g., GS was applied to six tissue samples in six different wells). 25 μL portions of each of the test articles and controls were also applied to the same MelanoDerm tissue samples on Days, 1, 3, 6, and 8 of the study for each sample remaining (some samples were used for testing). Throughout the study, the maintenance medium was changed every two days to maintain the MelanoDerm tissue samples.
On each of Days 3, 7, 10, and 14, one tissue sample for each test article and control was fixed with formalin, photographed to document macroscopic darkening, microscopically observed to examine melanocyte morphology and dendricity, then processed for histology. On Days 10 and 14, two tissue samples for each test article and control were frozen and later assayed for melanin content.
To assay the tissues for melanin content, the frozen tissues were thawed and placed in Dulbecco's phosphate buffered saline (D-PBS) to remove excess phenol red from the maintenance medium. The tissues were removed from the D-PBS and each tissue was blotted dry and placed in a separate 1.7 ml microfuge tube. To each microfuge tube 250 μl of a tissue and gel solubilizer was added (Solvable™, 0.5 M—Packard BioScience Co. Catalogue No. 6NE9 100 (NEF910)). Dilutions for creating a standard curve were also prepared containing from 0-250 μg of melanin (Sigma cat. M 8631) in a total of 250 μl Solvable™. The tissues were incubated in their tubes overnight at about 60° C. overnight along with the dilutions. The tissue samples were then vortexed. Then the tissue samples were centrifuged at 13,000 rpm for 5 minutes to pellet. The supernatant from the tissue samples was collected. 250 μl of the supernatant from each tissue sample as well as the dilutions were then added to separate wells of a microwell plate. The plate was read at 490 nm. The optical densities of the dilutions were used to prepare a standard curve against which the optical densities of the tissue sample supernatants could be compared to determine the melanin content of the tissue samples. […]

Data set [2] concerns MelanoDerm tissue (MEL-300-B). Kind of data set: Macroscopic skin lightening of fixed MelanoDerm tissue. As to conditions: fixed tissues. The format is cell-based, human. As for the experimental part: as §1
On Day zero of the study, prior to exposure to any test articles, MelanoDerm tissue samples were placed into wells on plates containing maintenance medium that had been pre-warmed to about 37° C. (Long life maintenance medium, EPI-100-LLMM). The Melanoderm tissue samples were then incubated for about an hour in a humidified incubator maintained at a temperature of about 37° C. in an atmosphere of about 5% CO2. Following incubation, the maintenance medium was removed by aspiration. A cell culture stand was then placed in each well on the plate containing a MelanoDerm tissue sample. About 5 mL of fresh maintenance medium pre-warmed to about 37° C. was then added to each well having a MelanoDerm tissue sample. […]

Data set [3] has as its system EpiDerm tissue (normal, human-derived epidermal keratinocytes). Kind of data set: MTT tissue viability assay on EpiDerm tissue. The note with it: 48 hours of exposure, negative control = 100%. The class given is cell-based. As for the experimental part:
The effect of the tested articles on cell viability was determined with an MTT assay. 10 μL and 25 μL portions of each of GS, SB, A, FS, DG and Mix were applied to separate duplicate samples of EpiDerm tissue (e.g., GS was applied to four tissue samples, with two samples receiving 10 μL and two samples receiving 25 μL of GS). 25 μL of the negative control was applied to each of three separate samples of EpiDerm tissue. EpiDerm tissue is an epidermal equivalent system from the MatTek Corporation of Ashland, Mass., consisting of normal, human-derived epidermal keratinocytes (NHEK) which have been cultured to form a multilayered, highly differentiated model of the human epidermis. After 48 hours of exposure to the test article or negative control each sample was rinsed with phosphate buffered saline (PBS) and the viability of the tissue (referenced to the negative control) was determined using the MTT tissue viability assay.
The MTT assay determines cell viability by measuring the amount of 3-(4,5-dimethylthiazol-2-yl)-2,5-diphenyltetrazolium bromide (MTT) dye taken up by the cell cultures. Viable cells take up this dye and convert it to insoluble formazin crystals that resides in the mitochondria of the cells until extracted with alcohol. […] MTT was measured spectrophotometrically and the optical density of each sample was determined. […]

Where “and” joins values, the source holds several entries; their conditions need not be identical. Equal entries are not always repeated.

On to `CC1(C)[C@@H](O[C@H]2O[C@H](C(=O)[O-])[C@@H](O)[C@H](O)[C@H]2O[C@@H]2O[C@H](C(=O)[O-])[C@@H](O)[C@H](O)[C@H]2O)CC[C@]2(C)[C@H]3C(=O)C=C4[C@@H]5C[C@@](C)(C(=O)O)CC[C@]5(C)CC[C@@]4(C)[C@]3(C)CC[C@@H]12.[K+].[K+]` [DG, dipotassium glycyrrhizate], for which, in data set [1] (Day 10), the “% melanin content relative to the Negative Control” value turned out to be 100.6%; the “% melanin content relative to the Positive Control” value amounted to 109.5%; the Average melanin content came to 24.8 μg/tissue; the “Melanin content of the two tested samples for each test article” value (from here on “Melanin content … for each test article”) was 27.3 μg/tissue and 22.3 μg/tissue. Moreover, in data set [1] (Day 14), the “% melanin content relative to the Negative Control” value was 85.8%; the “% melanin content relative to the Positive Control” value was found to be 118.7%; the Average melanin content is 31.8 μg/tissue; the “Melanin content … for each test article” value was 26.0 μg/tissue and 37.6 μg/tissue. Besides, the “macroscopic lightening compared with the negative control” value in data set [2] (Days 3, 7, 10, and 14) is reported as “lightening effect”. Moreover, the “% Viability of tissue sample exposed to test article” value in data set [3] (10 mL (so in the source) applied) is recorded as 94.62%. Further, the “% Viability of tissue sample exposed to test article” value in data set [3] (25 mL (so in the source) applied) is 94.46%.
As for `O=c1cc(CO)occ1O` [Positive Control, kojic acid], in data set [1] (Day 10), the “% melanin content relative to the Negative Control” value turned out to be 91.9%; the “% melanin content relative to the Positive Control” value is on record as 100.0%; the Average melanin content amounted to 22.7 μg/tissue; the “Melanin content … for each test article” value is 25.0 μg/tissue and 20.3 μg/tissue. In addition, in data set [1] (Day 10 and Day 14), the “melanin content compared with the negative control (in words)” value was “lower melanin content than the negative control”. Also, in data set [1] (Day 14), the “% melanin content relative to the Negative Control” value was determined as 72.3%; the “% melanin content relative to the Positive Control” value worked out at 100.0%; the Average melanin content was found to be 26.8 μg/tissue; the “Melanin content … for each test article” value was 26.6 μg/tissue and 27.0 μg/tissue. Besides, the “macroscopic lightening compared with the negative control” value in data set [2] (Days 3, 7, and 10) was “lighter than the negative control”.
